Test results from PubChem BioAssay (NCI).
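Five concentrations, 48 hours, 96-well plates. TGI: total growth inhibition.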

Tests used:
Assay in all cases: inhibition of tumour cell growth, NCI panel, 48 h
SNB-19 CNS = system: SNB-19 CNS
UACC-62 melanoma = system: UACC-62 melanoma
RPMI-8226 leukemia = system: RPMI-8226 leukemia
OVCAR-3 ovarian = system: OVCAR-3 ovarian
MALME-3M melanoma = system: MALME-3M melanoma
CCRF-CEM leukemia = system: CCRF-CEM leukemia
HCT-15 colon = system: HCT-15 colon
HT29 colon = system: HT29 colon
SF-268 CNS = system: SF-268 CNS
HCC-2998 colon = system: HCC-2998 colon
A549 NSCLC = system: A549 NSCLC
TK-10 renal = system: TK-10 renal

Structure (SMILES)	TGI (SNB-19 CNS) [µM]	TGI (UACC-62 melanoma) [µM]	TGI (RPMI-8226 leukemia) [µM]	TGI (OVCAR-3 ovarian) [µM]	TGI (MALME-3M melanoma) [µM]	TGI (CCRF-CEM leukemia) [µM]	TGI (HCT-15 colon) [µM]	TGI (HT29 colon) [µM]	TGI (SF-268 CNS) [µM]	TGI (HCC-2998 colon) [µM]	TGI (A549 NSCLC) [µM]	TGI (TK-10 renal) [µM]
CCCCCCC(N)(CCCCCC)C(=O)Nn1c(C)ccc1C	> 100	> 100	> 100	> 100	> 100	> 100	> 100	> 100	> 100	> 100	65.3	> 100
Oc1ccccc1C=Nc1ccc(Oc2ccc(Cl)cc2)c(Cl)c1	49.6	49.6	81.1	38.5	44.2	54.3	36.6	40.1	43.5	45.7	58.7	> 100
CCN(CC)c1ccc(/C=C/C2=NN(c3cccc(S(=O)(=O)O)c3)C3(C2)C(Cl)C(=O)N3c2nc3ccccc3s2)cc1 (stereo unspecified)	29.7	20.6	6.89	17.4	24.9	4.47	24.1	33.9	41.5	21.4	28.7	14.3
